Data: ChEMBL document CHEMBL1140025, “Antimicrobial activity of rationally designed amino terminal modified peptides” (Bioorg Med Chem Lett, 2007)
Converted amounts (≈) assume the structure as drawn. Where a SMILES comes first, the peptide text is derived from it. [ ]: non-standard residue; d: D form. The star is where a group is joined. Desaminotyrosyl = O=C(CCc1ccc(O)cc1)*; X1 = O=C(/C=C/c1ccc(O)cc1)*; Orn = NCCC[C@H](N)C(=O)O; X2 = O=C(/C=C/c1ccccc1)*

Key:
[1] = test system: Pseudomonas aeruginosa; assay: Antibacterial activity against Pseudomonas aeruginosa MTCCB 741; format: functional
[2] = test system: Escherichia coli; assay: Antibacterial activity against Escherichia coli MTCCB 1610; format: functional
[3] = test system: Staphylococcus aureus; assay: Antibacterial activity against Staphylococcus aureus MTCCB 96; format: functional
[4] = test system: Bacillus subtilis; assay: Antibacterial activity against Bacillus subtilis NCIM 2063; format: functional
[5] = test system: Escherichia coli; assay: Antibacterial activity against Escherichia coli
[6] = Toxicity against human red blood cells assessed as lysis upto 1000 ug/mL; format: cell-based, Erythrocyte; settings: read-out: Activity

| Molecule | MIC [1] [µg/mL] | MIC [2] [µg/mL] | MIC [3] [µg/mL] | MIC [4] [µg/mL] | MIC [5] [µg/mL] | hemolysis [6] [%] |
| --- | --- | --- | --- | --- | --- | --- |
| CN(C)[C@@H]1C(O)=C(C(N)=O)C(=O)[C@@]2(O)C(O)=C3C(=O)c4c(O)cccc4[C@@](C)(O)[C@H]3C[C@@H]12 [TETRACYCLINE] | 1 (≈ 2.25 µM) | 0.5 (≈ 1.13 µM) | 0.25 (≈ 0.563 µM) | 0.125 (≈ 0.281 µM) | 2 (≈ 4.5 µM) |  |
| NCCC[C@H](NC(=O)/C=C/c1ccc(O)cc1)C(=O)N[C@@H](CCCN)C(=O)N[C@@H](Cc1c[nH]c2ccccc12)C(=O)N[C@@H](Cc1c[nH]c2ccccc12)C(N)=O (X1-[Orn][Orn]WW-NH2) | 2 (≈ 2.62 µM) | 16 (≈ 20.9 µM) | 2 (≈ 2.62 µM) | 1 (≈ 1.31 µM) | 8 (≈ 10.5 µM) | 0 |
| NCCC[C@H](NC(=O)/C=C/c1ccc(O)cc1)C(=O)N[C@@H](CCCN)C(=O)N[C@@H](Cc1c[nH]c2ccccc12)C(=O)N[C@@H](Cc1c[nH]c2ccccc12)C(=O)O (X1-[Orn][Orn]WW-OH) | 64 (≈ 83.7 µM) | 64 (≈ 83.7 µM) | 128 (≈ 167 µM) | 128 (≈ 167 µM) | 128 (≈ 167 µM) | 0 |
| GENTAMICIN | 1 | 0.25 | 0.062 | 0.03 |  |  |
| NCCC[C@H](NC(=O)/C=C/c1ccc(O)cc1)C(=O)N[C@@H](CCCN)C(=O)N[C@@H](Cc1ccccc1)C(=O)N[C@@H](Cc1ccccc1)C(N)=O (X1-[Orn][Orn]FF-NH2) | 2 (≈ 2.92 µM) | 4 (≈ 5.83 µM) | 32 (≈ 46.7 µM) | 2 (≈ 2.92 µM) | 8 (≈ 11.7 µM) | 0 |
| NCCC[C@H](NC(=O)[C@@H](N)CCCN)C(=O)N[C@@H](Cc1c[nH]c2ccccc12)C(=O)N[C@@H](Cc1c[nH]c2ccccc12)C(N)=O (H-[Orn][Orn]WW-NH2) | 256 (≈ 414 µM) | 512 (≈ 829 µM) | 128 (≈ 207 µM) | 512 (≈ 829 µM) | 256 (≈ 414 µM) | 0 |
| CC(=O)N[C@@H](CCCN)C(=O)N[C@@H](CCCN)C(=O)N[C@@H](Cc1c[nH]c2ccccc12)C(=O)N[C@@H](Cc1c[nH]c2ccccc12)C(N)=O (Ac-[Orn][Orn]WW-NH2) | 128 (≈ 194 µM) | 32 (≈ 48.5 µM) | 2 (≈ 3.03 µM) | 2 (≈ 3.03 µM) | 128 (≈ 194 µM) | 0 |
| NCCC[C@H](NC(=O)/C=C/c1ccccc1)C(=O)N[C@@H](CCCN)C(=O)N[C@@H](Cc1c[nH]c2ccccc12)C(=O)N[C@@H](Cc1c[nH]c2ccccc12)C(N)=O (X2-[Orn][Orn]WW-NH2) | 16 (≈ 21.4 µM) | 2 (≈ 2.67 µM) | 2 (≈ 2.67 µM) | 32 (≈ 42.8 µM) | 4 (≈ 5.35 µM) | 0 |
| NCCC[C@H](NC(=O)CCc1ccc(O)cc1)C(=O)N[C@@H](CCCN)C(=O)N[C@@H](Cc1c[nH]c2ccccc12)C(=O)N[C@@H](Cc1c[nH]c2ccccc12)C(N)=O (Desaminotyrosyl-[Orn][Orn]WW-NH2) | 32 (≈ 41.8 µM) | 2 (≈ 2.61 µM) | 1 (≈ 1.31 µM) | 2 (≈ 2.61 µM) | 4 (≈ 5.22 µM) | 0 |
| NC(=O)[C@H](Cc1c[nH]c2ccccc12)NC(=O)[C@H](Cc1c[nH]c2ccccc12)NC(=O)/C=C/c1ccc(O)cc1 | < 512 | < 512 | 2 (≈ 3.73 µM) | 1 (≈ 1.87 µM) | < 512 | 0 |
